This is an account of results in patent US10988477B2 (Merck Patent GmbH, priority 2018, dated 2021).

Assay [1] addresses intracellular GCN2 (phosphorylation of the GCN2 substrate eIF2α) (Homo sapiens, UniProt Q9P2K8). As to the kind of experiment: GCN2 cellular inhibition assay (AlphaScreen SureFire P-eIF2α Ser51, borrelidin-treated U2OS cells). It is filed as cell-based. The following applies: compounds of Formula IV; biomarker assay, phosphorylated eIF2α Ser51 in borrelidin-treated U2OS cells. In short, it runs like this: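 First, U2OS cells are plated and left overnight at 37 °C. Next, compounds (from 40 μM final, 4-fold steps) and 10 μM borrelidin are added for 1 h, cells lysed, and phospho-Ser51 eIF2α detected by AlphaScreen bead sandwich. Inhibition is computed versus borrelidin-only wells.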
(Bead proximity is the source of the signal in Alpha formats.)

The next assay deals with GCN2 kinase (Homo sapiens, UniProt Q9P2K8). As to the kind of experiment: GCN2 enzyme inhibition assay (Transcreener ADP2 fluorescence polarization). It is filed as biochemical. The conditions noted are these: Enzyme activity for compounds of Formula IV; Ki(app), 280 μM ATP, 25° C. The method, boiled down:
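FP detection of ADP (antibody plus Alexa633 tracer) after a 1 h, 25 °C kinase reaction. Enzyme 4 nM, ATP 280 μM, (RS)7 peptide 200 μM, Tris pH 7.5 buffer with MgCl2 and DTT. Percent inhibition fitted by non-linear tight-binding algorithm for IC50 and Ki(app).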
(Polarisation of emitted light reports the rotation of a fluorescent probe.)

SMILES strings stand for the structures. Bounds are passed on as bounds.

Chain of GCN2 kinase (Q9P2K8 whole entry): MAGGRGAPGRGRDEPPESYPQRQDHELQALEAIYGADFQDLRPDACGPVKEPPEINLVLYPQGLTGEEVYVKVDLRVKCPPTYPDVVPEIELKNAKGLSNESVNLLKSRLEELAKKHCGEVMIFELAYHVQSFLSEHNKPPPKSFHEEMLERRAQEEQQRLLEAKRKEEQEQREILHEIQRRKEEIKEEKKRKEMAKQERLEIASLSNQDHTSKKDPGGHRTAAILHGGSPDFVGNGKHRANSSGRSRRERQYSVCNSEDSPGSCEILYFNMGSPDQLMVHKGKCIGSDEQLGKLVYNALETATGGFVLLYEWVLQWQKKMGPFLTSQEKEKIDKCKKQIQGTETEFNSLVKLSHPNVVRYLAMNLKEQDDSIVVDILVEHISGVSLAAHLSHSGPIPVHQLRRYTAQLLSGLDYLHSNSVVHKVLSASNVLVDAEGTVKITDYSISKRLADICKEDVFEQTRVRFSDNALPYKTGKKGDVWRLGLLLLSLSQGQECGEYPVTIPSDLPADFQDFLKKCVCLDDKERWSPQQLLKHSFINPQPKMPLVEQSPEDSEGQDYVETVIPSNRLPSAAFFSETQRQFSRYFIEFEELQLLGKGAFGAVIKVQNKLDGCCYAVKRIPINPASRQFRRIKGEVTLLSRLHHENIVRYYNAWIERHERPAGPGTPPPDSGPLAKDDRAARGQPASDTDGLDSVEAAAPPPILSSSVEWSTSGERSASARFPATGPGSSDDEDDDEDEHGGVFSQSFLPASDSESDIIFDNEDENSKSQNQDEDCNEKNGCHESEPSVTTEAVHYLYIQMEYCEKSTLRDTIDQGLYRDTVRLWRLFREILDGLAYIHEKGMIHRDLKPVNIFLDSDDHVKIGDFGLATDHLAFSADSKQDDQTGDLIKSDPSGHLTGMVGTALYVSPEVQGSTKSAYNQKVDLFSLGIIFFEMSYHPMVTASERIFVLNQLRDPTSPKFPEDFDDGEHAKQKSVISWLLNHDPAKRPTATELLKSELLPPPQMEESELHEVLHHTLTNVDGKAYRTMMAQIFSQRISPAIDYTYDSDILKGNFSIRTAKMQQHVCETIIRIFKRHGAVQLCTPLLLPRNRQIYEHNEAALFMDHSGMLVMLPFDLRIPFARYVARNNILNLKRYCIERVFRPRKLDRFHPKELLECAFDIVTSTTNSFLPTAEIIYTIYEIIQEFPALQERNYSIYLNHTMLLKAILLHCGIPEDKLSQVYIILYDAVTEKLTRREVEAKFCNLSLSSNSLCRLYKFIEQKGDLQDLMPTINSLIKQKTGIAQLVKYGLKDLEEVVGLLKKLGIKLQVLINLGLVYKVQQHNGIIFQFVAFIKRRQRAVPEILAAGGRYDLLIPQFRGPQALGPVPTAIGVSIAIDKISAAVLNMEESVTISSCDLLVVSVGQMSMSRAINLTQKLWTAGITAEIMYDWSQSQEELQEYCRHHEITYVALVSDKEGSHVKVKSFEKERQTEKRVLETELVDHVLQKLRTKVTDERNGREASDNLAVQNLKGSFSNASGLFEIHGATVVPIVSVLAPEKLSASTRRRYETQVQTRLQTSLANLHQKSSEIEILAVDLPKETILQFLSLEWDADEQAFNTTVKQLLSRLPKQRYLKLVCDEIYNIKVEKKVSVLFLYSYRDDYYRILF
Chain of intracellular GCN2 (phosphorylation of the GCN2 substrate eIF2α) (Q9P2K8 whole entry): as above

The molecule `CC1C(c2cn[nH]c2)NCCN1c1ccnc(-c2cnc3cnc(C(F)F)cn23)n1` (centres unmarked) [IV-454, 6-(Difluoromethyl)-3-(4-(2-methyl-3-(1H-pyrazol-4-yl)piperazin-1-yl)pyrimidin-2-yl)imidazo[1,2-a]pyrazine] showed an IC50 in assay [1] of 500 to 5000 nM. Besides, the Ki on GCN2 kinase lay within 10 to 100 nM.
On the same counts, the results for `FC(F)OC1CC(c2cn[nH]c2)CN(c2ccnc(-c3cnc4cnc(C(F)(F)F)cn34)n2)C1` (centres unmarked) [IV-466, 3-(4-(3-(Difluoromethoxy)-5-(1H-pyrazol-4-yl)piperidin-1-yl)pyrimidin-2-yl)-6-(trifluoromethyl)imidazo[1,2-a]pyrazine] are 500 to 5000 nM and below 10 nM.
On the same counts, the results for `FC(F)OC1CC(c2cn[nH]c2)CN(c2ccnc(-c3cnc4cnc(C(F)(F)F)cn34)n2)C1` (centres unmarked) [IV-472, 3-(4-(3-(Difluoromethoxy)-5-(1H-pyrazol-4-yl)piperidin-1-yl)pyrimidin-2-yl)-6-(trifluoromethyl)imidazo[1,2-a]pyrazine] are 500 to 5000 nM and 10 to 100 nM.
Regarding `O=C1NCC2CN(c3ccnc(-c4cnc5cnc(C(F)(F)F)cn45)n3)CCN12` (centres unmarked) [IV-480, 7-(2-(6-(Trifluoromethyl)imidazo[1,2-a]pyrazin-3-yl)pyrimidin-4-yl)hexahydroimidazo[1,5-a]pyrazin-3(2H)-one], in assay [1], the IC50 is above 5000 nM. The molecule further had a Ki on GCN2 kinase of 100 to 1000 nM.
On the same counts, the results for `CC1C(c2cn[nH]c2)CCCN1c1nccc(-c2cnc3cnc(C(F)(F)F)cn23)n1` (centres unmarked) [IV-485, 3-(2-(2-Methyl-3-(1H-pyrazol-4-yl)piperidin-1-yl)pyrimidin-4-yl)-6-(trifluoromethyl)imidazo[1,2-a]pyrazine] are below 500 nM and below 10 nM.
On the same counts, the results for `NCCC1CCCN(c2ccnc(-c3cnc4cnc(C(F)(F)F)cn34)n2)C1` (centres unmarked) [IV-488] are above 5000 nM and 100 to 1000 nM.
On the same counts, the results for `FC(F)(F)c1cn2c(-c3nccc(N4CCCC(n5ccnn5)C4)n3)cnc2cn1` (centres unmarked) [IV-493, 3-(4-(3-(1H-1,2,3-Triazol-1-yl)piperidin-1-yl)pyrimidin-2-yl)-6-(trifluoromethyl)imidazo[1,2-a]pyrazine] are above 5000 nM and 10 to 100 nM.
In assay [1], `FC(F)(F)c1cn2c(-c3nccc(N4CCC(c5cn[nH]c5)C4)n3)cnc2cn1` (centres unmarked) [IV-494, 3-(4-(3-(1H-Pyrazol-4-yl)pyrrolidin-1-yl)pyrimidin-2-yl)-6-(trifluoromethyl)imidazo[1,2-a]pyrazine] yielded a concentration for half-maximal inhibition (IC50) of 500 to 5000 nM. Also, on GCN2 kinase, the Ki lay within 10 to 100 nM.
On the same counts, the results for `COCC1CCCN(c2ccnc(-c3cnc4cnc(C(F)(F)F)cn34)n2)C1` (centres unmarked) [IV-495, 3-(4-(3-(Methoxymethyl)piperidin-1-yl)pyrimidin-2-yl)-6-(trifluoromethyl)imidazo[1,2-a]pyrazine] are above 5000 nM and 100 to 1000 nM.
The like results for `Fc1n[nH]cc1C1CCN(c2ccnc(-c3cnc4cnc(C(F)(F)F)cn34)n2)C1` (centres unmarked) [IV-524, 3-(4-(3-(3-Fluoro-1H-pyrazol-4-yl)pyrrolidin-1-yl)pyrimidin-2-yl)-6-(trifluoromethyl)imidazo[1,2-a]pyrazine] were, in that order, below 500 nM and below 10 nM.
For the molecule `CC1CN(c2ccnc(-c3cnc4cnc(C(F)(F)F)cn34)n2)C(C)C(c2c[nH]cn2)O1` (centres unmarked) [IV-525, 2-(1H-Imidazol-4-yl)-3,6-dimethyl-4-(2-(6-(trifluoromethyl)imidazo[1,2-a]pyrazin-3-yl)pyrimidin-4-yl)morpholine], the IC50 in assay [1] is 500 to 5000 nM. The same molecule showed a Ki at GCN2 kinase below 10 nM.
On the same counts, the results for `FC(F)(F)c1cn2c(-c3nccc(N4CCC=C(c5cnsc5)C4)n3)cnc2cn1` [IV-535, 4-(1-(2-(6-(Trifluoromethyl)imidazo[1,2-a]pyrazin-3-yl)pyrimidin-4-yl)-1,2,5,6-tetrahydropyridin-3-yl)isothiazole] are 500 to 5000 nM and 10 to 100 nM.
On the same counts, the results for `N#Cc1n[nH]cc1C1=CCCN(c2ccnc(-c3cnc4cnc(C(F)(F)F)cn34)n2)C1` [IV-548, 4-(1-(2-(6-(Trifluoromethyl)imidazo[1,2-a]pyrazin-3-yl)pyrimidin-4-yl)-1,2,5,6-tetrahydropyridin-3-yl)-1H-pyrazole-3-carbonitrile] are 500 to 5000 nM and below 10 nM.
On the same counts, the results for `FC(F)(F)c1cn2c(-c3nccc(N4CC(c5cn[nH]c5)NC(C(F)(F)F)C4)n3)cnc2cn1` (centres unmarked) [IV-558, 3-(4-(3-(1H-Pyrazol-4-yl)-5-(trifluoromethyl)piperazin-1-yl)pyrimidin-2-yl)-6-(trifluoromethyl)imidazo[1,2-a]pyrazine] are above 5000 nM and 10 to 100 nM.
In turn, `CC1CN(c2cc(Cl)nc(-c3cnc4cnc(C(F)(F)F)cn34)n2)C(C)C(c2cn[nH]c2)N1` (centres unmarked) [IV-567, 3-(4-Chloro-6-(2,5-dimethyl-3-(1H-pyrazol-4-yl)piperazin-1-yl)pyrimidin-2-yl)-6-(trifluoromethyl)imidazo[1,2-a]pyrazine] displayed a 50% inhibitory concentration (IC50) in assay [1] of 500 to 5000 nM. Moreover, the Ki on GCN2 kinase lay in the range of 10 to 100 nM.
`FC(F)(F)c1cn2c(-c3nccc(N4CCC(c5c[nH]nc5C(F)(F)F)C4)n3)cnc2cn1` (centres unmarked) [IV-572, 6-(Trifluoromethyl)-3-(4-(3-(3-(trifluoromethyl)-1H-pyrazol-4-yl)pyrrolidin-1-yl)pyrimidin-2-yl)imidazo[1,2-a]pyrazine]: the IC50 in assay [1] lay within 500 to 5000 nM. At GCN2 kinase, this molecule gave a Ki below 10 nM.
With `OCc1n[nH]cc1C1CCN(c2ccnc(-c3cnc4cnc(C(F)(F)F)cn34)n2)C1` (centres unmarked) [IV-573, (4-(1-(2-(6-(Trifluoromethyl)imidazo[1,2-a]pyrazin-3-yl)pyrimidin-4-yl)pyrrolidin-3-yl)-1H-pyrazol-3-yl)methanol], the IC50 in assay [1] lay in the range of 500 to 5000 nM. Further, the Ki at GCN2 kinase lay in the range of 10 to 100 nM.
As for `Cc1n[nH]c(C)c1C1CCN(c2ccnc(-c3cnc4cnc(C(F)(F)F)cn34)n2)C1` (centres unmarked) [IV-574, 3-(4-(3-(3,5-Dimethyl-1H-pyrazol-4-yl)pyrrolidin-1-yl)pyrimidin-2-yl)-6-(trifluoromethyl)imidazo[1,2-a]pyrazine], in assay [1], the IC50 was above 5000 nM. At GCN2 kinase, this molecule had a Ki of 10 to 100 nM.
The like results for `Cc1n[nH]cc1C1CCN(c2ccnc(-c3cnc4cnc(C(F)(F)F)cn34)n2)C1` (centres unmarked) [IV-575, 3-(4-(3-(3-Methyl-1H-pyrazol-4-yl)pyrrolidin-1-yl)pyrimidin-2-yl)-6-(trifluoromethyl)imidazo[1,2-a]pyrazine] were, in that order, 500 to 5000 nM and 10 to 100 nM.
In assay [1], `FC(F)(F)c1cn2c(-c3nccc(N4CCC(c5c[nH]nc5C5CC5)C4)n3)cnc2cn1` (centres unmarked) [IV-576, 3-(4-(3-(3-Cyclopropyl-1H-pyrazol-4-yl)pyrrolidin-1-yl)pyrimidin-2-yl)-6-(trifluoromethyl)imidazo[1,2-a]pyrazine] gave an IC50 of 500 to 5000 nM. The molecule also came in with a Ki at GCN2 kinase of 10 to 100 nM.
The like results for `CC1CN(c2cncc(-c3cnc4cnc(C(F)(F)F)cn34)n2)C(C)C(c2cn[nH]c2)N1` (centres unmarked) [IV-577, 3-(6-(2,5-Dimethyl-3-(1H-pyrazol-4-yl)piperazin-1-yl)pyrazin-2-yl)-6-(trifluoromethyl)imidazo[1,2-a]pyrazine] were, in that order, 500 to 5000 nM and below 10 nM.
On the same counts, the results for `CNc1cc(N2CC(C)NC(c3cn[nH]c3)C2C)nc(-c2cnc3cnc(C(F)(F)F)cn23)n1` (centres unmarked) [IV-578, 6-(2,5-Dimethyl-3-(1H-pyrazol-4-yl)piperazin-1-yl)-N-methyl-2-(6-(trifluoromethyl)imidazo[1,2-a]pyrazin-3-yl)pyrimidin-4-amine] are 500 to 5000 nM and below 10 nM.
On the same counts, the results for `FC(F)(F)c1cn2c(-c3nccc(N4CCC(C5CCOC5)C4)n3)cnc2cn1` (centres unmarked) [IV-580, 3-(4-(3-(Tetrahydrofuran-3-yl)pyrrolidin-1-yl)pyrimidin-2-yl)-6-(trifluoromethyl)imidazo[1,2-a]pyrazine] are above 5000 nM and 10 to 100 nM.
The molecule `NC(=O)C1CN(c2ccnc(-c3cnc4cnc(C(F)(F)F)cn34)n2)CC(F)(F)C1` (centres unmarked) [IV-582, 5,5-Difluoro-1-(2-(6-(trifluoromethyl)imidazo[1,2-a]pyrazin-3-yl)pyrimidin-4-yl)piperidine-3-carboxamide] gave an IC50 in assay [1] of 500 to 5000 nM. The same molecule showed a Ki at GCN2 kinase of 10 to 100 nM.
The like results for `CC1CN(c2cccc(-c3cnc4cnc(C(F)(F)F)cn34)n2)C(C)C(c2cn[nH]c2)N1` (centres unmarked) [IV-583, 3-(6-(2,5-Dimethyl-3-(1H-pyrazol-4-yl)piperazin-1-yl)pyridin-2-yl)-6-(trifluoromethyl)imidazo[1,2-a]pyrazine] were, in that order, 500 to 5000 nM and below 10 nM.
On to `FC(F)(F)c1cn2c(-c3nccc(N4CCCC(c5cc[nH]n5)C4)n3)cnc2cn1` (centres unmarked) [IV-589, 3-(4-(3-(1H-Pyrazol-3-yl)piperidin-1-yl)pyrimidin-2-yl)-6-(trifluoromethyl)imidazo[1,2-a]pyrazine], for which the half-maximal inhibitory concentration (IC50) in assay [1] was in the range of 500 to 5000 nM. On GCN2 kinase, the Ki was in the range of 10 to 100 nM.
The like results for `CP(C)(=O)C1CC(c2cn[nH]c2)CN(c2ccnc(-c3cnc4cnc(C(F)(F)F)cn34)n2)C1` (centres unmarked) [IV-590, (5-(1H-Pyrazol-4-yl)-1-(2-(6-(trifluoromethyl)imidazo[1,2-a]pyrazin-3-yl)pyrimidin-4-yl)piperidin-3-yl)dimethylphosphine oxide] were, in that order, above 5000 nM and 100 to 1000 nM.
As to `CP(C)(=O)C1CC(c2cn[nH]c2)CN(c2ccnc(-c3cnc4cnc(C(F)(F)F)cn34)n2)C1` (centres unmarked) [IV-591, (5-(1H-Pyrazol-4-yl)-1-(2-(6-(trifluoromethyl)imidazo[1,2-a]pyrazin-3-yl)pyrimidin-4-yl)piperidin-3-yl)dimethylphosphine oxide], in assay [1], the IC50 is above 5000 nM. Moreover, the Ki on GCN2 kinase was 100 to 1000 nM.

What is called IC50 is the concentration needed to halve the response being measured. Lower therefore signals higher potency.
